Experimental data published in the supplement of paper PMC10307832.

How the values were obtained:
Assay in all cases: relative viability (nuclei count vs DMSO), 5 days (fraction); higher = more cells survive
Cediranib + Trametinib = compound: COc1cc2c(Oc3ccc4[nH]c(C)cc4c3F)ncnc2cc1OCCCN1CCCC1 [Cediranib] + CC(=O)Nc1cccc(-n2c(=O)n(C3CC3)c(=O)c3c(Nc4ccc(I)cc4F)n(C)c(=O)c(C)c32)c1 [Trametinib] (partner 0.02 µM)
Outline: (§1)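 Relative viability is defined as nuclei in treated wells over nuclei in vehicle wells. Duplicate plates were run and medians reported. Lung cancer cell lines in 1536-well plates were dosed by pin tool one day after seeding, with one drug or with a fixed anchor-drug dose plus five library-drug doses (not always all listed) in √10 steps, and nuclei were counted after 5 days.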

Decitabine + Lapatinib = compound: Nc1ncn([C@H]2C[C@H](O)[C@@H](CO)O2)c(=O)n1 [Decitabine] + CS(=O)(=O)CCNCc1ccc(-c2ccc3ncnc(Nc4ccc(OCc5cccc(F)c5)c(Cl)c4)c3c2)o1 [Lapatinib] (partner 2 µM)
Outline: as §1

[1] = compound: O=C(C[C@H]1NCCC[C@@H]1O)Cn1cnc2cc(Br)c(Cl)cc2c1=O (racemic) [Halofuginone] + CC(=O)c1c(C)c2cnc(Nc3ccc(N4CCNCC4)cn3)nc2n(C2CCCC2)c1=O [Palbociclib] (partner 0.5 µM)
Outline: as §1

[2] = compound: O=C(C[C@H]1NCCC[C@@H]1O)Cn1cnc2cc(Br)c(Cl)cc2c1=O (racemic) [Halofuginone] + C[C@]1(O)C[C@@H](c2nc(-c3ccc4ccc(-c5ccccc5)nc4c3)c3c(N)nccn32)C1 [Linsitinib] (partner 1 µM)
Outline: as §1

| Cell Line | relative viability (Cediranib + Trametinib; first compound 0.04 µM) | relative viability (Cediranib + Trametinib; first compound 0.1265 µM) | relative viability (Cediranib + Trametinib; first compound 0.4 µM) | relative viability (Cediranib + Trametinib; first compound 1.265 µM) | relative viability (Cediranib + Trametinib; first compound 4 µM) | relative viability (Decitabine + Lapatinib; first compound 0.04 µM) | relative viability (Decitabine + Lapatinib; first compound 0.1265 µM) | relative viability (Decitabine + Lapatinib; first compound 0.4 µM) | relative viability (Decitabine + Lapatinib; first compound 1.265 µM) | relative viability (Decitabine + Lapatinib; first compound 4 µM) | relative viability ([1]; first compound 0.001 µM) | relative viability ([1]; first compound 0.003162 µM) | relative viability ([1]; first compound 0.01 µM) | relative viability ([1]; first compound 0.03162 µM) | relative viability ([1]; first compound 0.1 µM) | relative viability ([2]; first compound 0.001 µM) | relative viability ([2]; first compound 0.003162 µM) | relative viability ([2]; first compound 0.01 µM) | relative viability ([2]; first compound 0.03162 µM) | relative viability ([2]; first compound 0.1 µM) |
| --- | --- | --- | --- | --- | --- | --- | --- | --- | --- | --- | --- | --- | --- | --- | --- | --- | --- | --- | --- | --- |
| 201T | 0.705 | 0.792 | 0.707 | 0.719 | 0.724 | 1.04 | 1.04 | 1.13 | 0.627 | 0.993 | 0.369 | 0.185 | 0.381 | 0.367 | 0.351 | 1.07 | 1.08 | 1.03 | 0.967 | 0.724 |
| A549 | – | – | – | – | – | 0.898 | 0.843 | 0.49 | 0.305 | 0.19 | – | – | – | – | – | 0.653 | 0.556 | 0.612 | 0.559 | 0.286 |
| A-427 | 0.747 | – | 0.717 | 0.684 | 0.737 | 0.806 | 0.745 | 0.318 | 0.333 | 0.229 | 0.526 | 0.538 | 0.534 | 0.49 | 0.479 | 1.18 | 1.13 | 1.02 | 1.09 | 1.08 |
| ABC-1 | – | – | – | – | – | 1.27 | 1.26 | 1.16 | 0.861 | 0.981 | 0.551 | 0.606 | 0.739 | 0.475 | 0.61 | 0.921 | 0.947 | 0.763 | 0.625 | 0.961 |
| BEN | 1.12 | 0.936 | 1.02 | 1.02 | 0.986 | 0.775 | 0.678 | 0.358 | 0.45 | 0.348 | 0.487 | 0.471 | 0.441 | 0.473 | 0.385 | 0.965 | 0.912 | 1.03 | 0.841 | 0.352 |
| CAL-12T | 0.443 | 0.362 | 0.319 | 0.248 | 0.341 | 0.607 | 0.698 | 0.264 | 0.504 | 0.375 | 0.332 | 0.433 | 0.406 | 0.392 | 0.194 | 0.842 | 0.838 | 0.659 | 0.866 | 0.649 |
| COR-L23 | 0.608 | 0.578 | 0.573 | 0.425 | 0.532 | 0.698 | 0.51 | 0.459 | 0.28 | 0.23 | 0.328 | 0.303 | 0.344 | 0.292 | 0.139 | 0.973 | 0.91 | 0.972 | 0.876 | 0.102 |
| COR-L 105 | 0.438 | 0.478 | 0.415 | 0.384 | 0.43 | 0.345 | 0.317 | 0.328 | 0.326 | 0.28 | 0.441 | 0.403 | 0.396 | 0.392 | 0.413 | 1.13 | 0.932 | 0.764 | 0.748 | 0.753 |
| Calu-6 | – | – | – | – | – | 0.87 | 0.689 | 0.316 | 0.308 | 0.264 | – | – | – | – | – | 1 | – | 0.932 | 0.712 | 0.35 |
| ChaGo-K-1 | 0.875 | 0.821 | 0.878 | 0.868 | 0.909 | – | – | – | – | – | 0.945 | 0.947 | 0.963 | 0.95 | 0.947 | – | – | – | – | – |
| EBC-1 | – | – | – | – | – | 0.2 | 0.163 | 0.162 | 0.195 | 0.152 | – | – | – | – | – | 0.959 | 1.07 | 0.784 | 0.656 | 0.251 |
| EKVX | 0.283 | 0.4 | 0.343 | – | 0.402 | 0.211 | 0.2 | 0.213 | 0.184 | 0.163 | 0.377 | 0.352 | 0.415 | 0.444 | 0.306 | 1.02 | 0.966 | 0.916 | 1.06 | 0.762 |
| EMC-BAC-2 | 0.823 | – | 0.842 | 0.82 | 0.923 | 0.926 | 0.989 | 0.556 | 0.67 | 0.586 | 0.545 | 0.531 | 0.506 | 0.536 | 0.37 | 0.813 | 0.872 | 0.798 | 0.785 | 0.641 |
| EPLC-272H | 0.318 | – | 0.278 | 0.269 | 0.242 | 0.749 | 0.777 | – | 0.543 | 0.518 | 0.306 | 0.33 | 0.339 | 0.361 | 0.314 | 1.28 | 1.17 | 1.06 | 1.2 | 1.13 |
| H3255 | 0.606 | – | 0.623 | – | 0.567 | 0.226 | 0.193 | 0.201 | 0.164 | 0.205 | 0.322 | 0.323 | 0.346 | 0.309 | 0.351 | 0.913 | 0.952 | 0.876 | 0.941 | 0.805 |
| HARA | 0.803 | 0.81 | 0.62 | 0.882 | 0.831 | 0.737 | 0.935 | 0.443 | 0.432 | 0.296 | 0.382 | 0.266 | 0.234 | 0.264 | 0.216 | 1.02 | 0.981 | 0.79 | 1.02 | 0.828 |
| HCC-15 | 0.389 | – | 0.362 | 0.337 | 0.404 | 0.634 | 0.778 | 0.223 | 0.345 | 0.366 | 0.802 | 0.823 | 0.731 | 0.713 | 0.65 | 0.914 | 0.908 | 0.839 | 0.92 | 0.688 |
| HCC-44 | 1.2 | 0.907 | 1.1 | 1.05 | 1.07 | 0.84 | 1 | 0.298 | 0.661 | 0.51 | 0.976 | 0.964 | 0.962 | 0.932 | 0.966 | 0.67 | 0.678 | 0.594 | 0.682 | 0.341 |
| HCC-78 | 0.742 | 1.02 | 0.721 | 0.915 | 0.919 | 0.819 | 0.862 | 0.46 | 0.411 | 0.388 | 0.516 | 0.519 | 0.497 | 0.488 | 0.551 | 0.479 | 0.579 | 0.484 | 0.706 | 0.312 |
